# Measurements as given in patent US8772243B2, “Methods for predicting the response to anti-cancer treatment with an agonist of TLR7 or an agonist of TLR8” (Inserm (Institut National de la Sante et de la Recherche …, priority 2008, dated 2014).
# Legend:
# Format in all cases: cell-based, human
# [1] = test system: Bcl-2 expression in SCC SK-MES cells; assay: Bcl-2 expression, SK-MES; conditions: data not shown
# Protocol: (§1) Total RNA was extracted from A549 or SK-MES cells stimulated with loxoribine, Poly U, or Gardiquimod for 6 h or from purified human lung cancer cells using the RNeasy isolation-kit RNA (Qiagen, Courtaboeuf, France). The integrity and the quantity of the RNA were evaluated with a bioanalyzer-2100 (Agilent Technologies). All samples were assessed for gene expression analysis using the Taq Man Low-Density Array angiogenesis and immune panel (Applied Biosystem). The RT-PCR experiments were carried-out according to the manufacturer's instructions (Applied-Biosystems). Quantitative real-time TaqMan-PCR was performed using Low-Density-Arrays and the 7900 robotic real-time PCR-system (Applied-Biosystems). The 18S primers and probes were used as internal controls. Data were analyzed using the SDS Software v2.2 (Applied-Biosystems). The ΔCT values were calculated for each gene by subtraction of the CT value of the 18S housekeeping gene from the CT of the gene of interest. The ΔΔCT values were obtained by subtraction of the ΔCT values for unstimulated cells from the CT obtained for stimulated cells. The fold increase (arbitrary unit) was obtained by 2^−ΔΔCT.
# [2] = test system: Bcl-2 expression in A549 cells; assay: Bcl-2 expression, Taq Man Low Density Array, A549; conditions: 6 h, RT-PCR
# Protocol: FIG. 4 TLR7 and 8 induce survival of lung tumor cells. (A) A549 cells were unstimulated, stimulated with loxoribine (10 μg/ml), Poly U (10 μg/ml), or Gardiquimod(10μg/ml) and incubated with Alamar blue for 10 days. Reduction of Alamar blue was then determined by spectrophotometry at 570 and 600 nm. The percentage of reduced Alamar blue was calculated as described by the manufacturer. A549 cells were unstimulated or stimulated with loxoribine, Poly U, Gardiquimod, etoposide, or cycloheximide for 24 h. (B) The percentage of dead cells was determined by Trypan blue exclusion. (C) The DNA content was measured by IP staining after RNAse A treatment. The percentages indicate the proportion of subdiploid (G0/G1) and […]. Data represent mean values±SD from 3 independent experiments (*p<0.05; ** p<0.01, Student test). (D) A549 cells were cultured for 6 h in the presence of loxoribine, Poly U, or Gardiquimod, and the expression of Bcl-2 was assayed using Taq Man Low Density Array technology. The ΔCT values for Bcl-2 expression were calculated by subtraction of the CT value obtained for the 18S housekeeping gene. The ΔΔCT values were obtained by subtraction of ΔCT values for unstimulated cells from those obtained for stimulated cells. […]
# as §1, with “The RT-PCR experiments were carried-out according to the manufacturer's instructions (Applied-Biosystems).” left out, “The 18S primers and probes were used as internal controls.” left out, “The ΔΔCT values were obtained by subtraction of the ΔCT values for unstimulated cells from the CT obtained for stimulated cells. The fold increase (arbitrary unit) was obtained by 2^−ΔΔCT.” left out
# A549 and SK-MES cells [3] = assay: Transcriptomic analysis of 182 genes (Taq Man Low Density Array); conditions: 6 h stimulation; versus unstimulated cells
# Protocol: FIG. 6 TLR7 and 8 induce regulation of gene transcription. A549 or SK-MES cells were cultured for 6 h in the presence of loxoribine, Poly U, or Gardiquimod. Total RNA was extracted and analyzed for the expression of 182 genes using Taq Man Low Density Array technology. All genes with a value greater than 35 (CT) were excluded from the analysis. The ΔCT values for the expression of all genes were calculated by subtraction of the CT value of the 18S housekeeping gene. The ΔΔCT values were obtained by subtraction of the ΔCT values for unstimulated cells from those obtained for TLR7- or 8-stimulated cells. The fold increase (arbitrary unit) was obtained by 2^−ΔΔCT. Values were then clustered using the Genesis Software.
# as §1
# A549 and SK-MES cells [4] = assay: Chemoresistance assay (Trypan blue and Alamar blue); conditions: Alamar blue reduction
# Protocol: FIG. 5 TLR7 and 8 induce chemoresistance of lung tumor cells. A549 (A-C) or SK-MES cells (D-F) were cultured with or without loxoribine or Poly U for 48 h, and then left untreated or were treated with cycloheximide, cisplatine, carboplatine, doxorubicine, or Navelbine. After 36 h, the percentage of dead cells was determined by Trypan blue exclusion (A, D) and cell viability was analyzed by the reduction of Alamar blue (B, C, E and F). Data represent mean values±SD from 3 independent experiments (*p<0.05; **p<0.01, ***p<0.001, Student test).
# A549 and SK-MES cells were seeded in 96-well plates (1000 cells per well) and left unstimulated or were stimulated with loxoribine, Poly U, or Gardiquimod for 48 h. Cisplatine, carboplatine, doxorubicine, Navelbine, or cycloheximide was then added for an additional 36 h. The optical density in each well was determined 24 h after the addition of Alamar blue at 540 nm and 570 nm. Alternatively, viable and dead cells were counted using Trypan blue.
# A549 cells [5] = assay: Tumor cell proliferation assay (Alamar blue reduction); conditions: 10 μg/ml, ten days
# Protocol: (§2) FIG. 4 TLR7 and 8 induce survival of lung tumor cells. (A) A549 cells were unstimulated, stimulated with loxoribine (10 μg/ml), Poly U (10 μg/ml), or Gardiquimod(10μg/ml) and incubated with Alamar blue for 10 days. Reduction of Alamar blue was then determined by spectrophotometry at 570 and 600 nm. The percentage of reduced Alamar blue was calculated as described by the manufacturer. A549 cells were unstimulated or stimulated with loxoribine, Poly U, Gardiquimod, etoposide, or cycloheximide for 24 h. (B) The percentage of dead cells was determined by Trypan blue exclusion. (C) The DNA content was measured by IP staining after RNAse A treatment. The percentages indicate the proportion of subdiploid (G0/G1) and […]. Data represent mean values±SD from 3 independent experiments (*p<0.05; ** p<0.01, Student test). (D) A549 cells were cultured for 6 h in the presence of loxoribine, Poly U, or Gardiquimod, and the expression of Bcl-2 was assayed using Taq Man Low Density Array technology. The ΔCT values for Bcl-2 expression were calculated by subtraction of the CT value obtained for the 18S housekeeping gene. The ΔΔCT values were obtained by subtraction of ΔCT values for unstimulated cells from those obtained for stimulated cells. The fold increase (arbitrary unit) was obtained by 2^−ΔΔCT.
# Human lung cancer cell lines were seeded in 96-well plates (800 cells per well) and left unstimulated or were stimulated with loxoribine, Poly U, or Gardiquimod. The proliferation assay was performed with Alamar blue (AbD Serotec, Cergy Pontoise, France) according to the manufacturer's instructions. Briefly, cells were seeded and stimulated with TLR ligands in 100 μl of medium, and 10 μl of Alamar Blue was added. The optical density in each well was determined at 540 nm and 570 nm after 10 days of culture, and the percentage of reduced Alamar blue was determined. The percentage of reduced Alamar blue in unstimulated cells was determined as 100%, and the percentages of the stimulated cells were determined relative to this value.
# A549 cells [6] = assay: Cell cycle analysis (propidium iodide staining); conditions: PI staining
# Protocol: as §2
# A549 cells were cultured in the presence of loxoribine, Poly U, Gardiquimod, etoposide, or cycloheximide. After 48 h, the cells were harvested, washed in cold PBS, and fixed with 2 ml of 70% cold ethanol in PBS for 2 h at 4° C. After centrifugation, the supernatant was removed and the pellet was rinsed with 0.5% PBS Tween. It was then incubated with […] of RNAse A and 50 μg of propidium iodide in PBS. Propidium iodide staining was determined with a FACScalibur cytometer.
Compound,increase in Bcl-2 expression [1],Bcl-2 expression compared to untreated cells [2],genes down-regulated in both SK-MES and A549 cells (A549 and SK-MES cells [3]),"genes up-regulated in A549 cells, but down-regulated in SK-MES cells (A549 and SK-MES cells [3])","genes up-regulated in SK-MES, but down-regulated in A549 cells (A549 and SK-MES cells [3])",genes up-regulated in both SK-MES and A549 cells (A549 and SK-MES cells [3]),cell viability after chemotherapy when stimulated prior to induction of apoptosis (A549 and SK-MES cells [4]),increase in reduction of Alamar blue versus unstimulated cells (A549 cells [5]),proportion of cells in G0/G1 or G2/M phases versus unstimulated cells (A549 cells [6])
"C=CCn1c(=O)n([C@@H]2O[C@H](CO)[C@@H](O)[C@H]2O)c2nc(N)[nH]c(=O)c21 [loxoribine, 7-allyl-7,8-dihydro-8-oxo-guanosine]",100 fold,increased expression of Bcl-2,"Prolactin (PRL), CD80, Fibronectin-1 (FN-1), A Disintegrin And Metalloproteinase with ThromboSpondin motif 1 (ADAMTS1), and Serpin Peptidase Inhibitor Clade C1 (SERPINC1)","Angiopoietin like 3 (ANGPTL3), Serpin Peptidase Inhibitor Clade F1 (SERPINF1), and Angiopoietin 1 (ANGPT1)","ANGPTL1, Platelet Factor 4 (PF4), and fms related tyrosine kinase 4 (FLT4)","Bcl-2, CCR4, and Vasohibin-1 (VASH-1)",significantly higher viability,20%,did not observe any significant differences
Poly U,100 fold,increased expression of Bcl-2,"Prolactin (PRL), CD80, Fibronectin-1 (FN-1), A Disintegrin And Metalloproteinase with ThromboSpondin motif 1 (ADAMTS1), and Serpin Peptidase Inhibitor Clade C1 (SERPINC1)","Angiopoietin like 3 (ANGPTL3), Serpin Peptidase Inhibitor Clade F1 (SERPINF1), and Angiopoietin 1 (ANGPT1)","ANGPTL1, Platelet Factor 4 (PF4), and fms related tyrosine kinase 4 (FLT4)","Bcl-2, CCR4, and Vasohibin-1 (VASH-1)",significantly higher viability,20%,did not observe any significant differences
